Laboratory results as given in the supplement of paper PMC10627819.

Experiments:
S. aureus DSM 20231 [1] = test: fitness (endpoint OD595 vs no drug) (fraction); higher = more growth
Method in brief: (§1)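 Each well of a 384-well plate received 30 µl of culture at OD595 0.01, or 55 µl for S. pneumoniae. TSB, LB Lennox or CY served as media at 37 °C. OD595 was taken every 30 min for 14 h and corrected by subtracting the first reading. Fitness is the optical density at stationary-phase entry divided by the robust mean of no-drug controls, capped at 1.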

S. pneumoniae D39V [2] = test: as above
Method in brief: as §1

B. subtilis 168 [3] = test: Bliss interaction score (quartile over a dose matrix) (fitness difference); higher = more antagonism (negative = synergy)
Method in brief: (§2)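 Fitness is OD595 at stationary-phase entry relative to the plate's robust no-drug mean, capped at 1. Single-drug fitness was inferred from combinations. The Bliss score is observed minus product-expected fitness, summarised by quartiles over technical, biological and donor/recipient replicates.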

S. aureus DSM 20231 [4] = test: as above
Method in brief: as §2

S. aureus Newman = test: as above
Method in brief: as §2

S. pneumoniae D39V [5] = test: as above
Method in brief: as §2

B. subtilis 168 [6] = test: fitness (endpoint OD595 vs no drug) (fraction); higher = more growth
Method in brief: as §1
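Wherever Bliss interaction score (quartile over a dose matrix) is given: first quartile when negative (synergy) and third quartile when positive (antagonism).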

CC(=O)NC[C@H]1CN(c2ccc(N3CCOCC3)c(F)c2)C(=O)O1 [Linezolid] + CN[C@H](CC(C)C)C(=O)N[C@H]1C(=O)N[C@@H](CC(N)=O)C(=O)N[C@H]2C(=O)N[C@H]3C(=O)N[C@H](C(=O)N[C@H](C(=O)O)c4cc(O)cc(O)c4-c4cc3ccc4O)[C@H](O)c3ccc(c(Cl)c3)Oc3cc2cc(c3O[C@@H]2O[C@H](CO)[C@@H](O)[C@H](O)[C@H]2O[C@H]2C[C@](C)(N)[C@H](O)[C@H](C)O2)Oc2ccc(cc2Cl)[C@H]1O [Vancomycin]
Conditions	fitness
S. aureus DSM 20231 [1], first compound 0.125 µg/mL, partner 0.1875 µg/mL	0.897
S. aureus DSM 20231 [1], first compound 0.125 µg/mL, partner 0.375 µg/mL	0.936
S. aureus DSM 20231 [1], first compound 0.125 µg/mL, partner 0.75 µg/mL	0.943
S. aureus DSM 20231 [1], first compound 0.25 µg/mL, partner 0.1875 µg/mL	0.553
S. aureus DSM 20231 [1], first compound 0.25 µg/mL, partner 0.375 µg/mL	0.596
S. aureus DSM 20231 [1], first compound 0.25 µg/mL, partner 0.75 µg/mL	0.583
S. aureus DSM 20231 [1], first compound 0.5 µg/mL, partner 0.1875 µg/mL	0.204
S. aureus DSM 20231 [1], first compound 0.5 µg/mL, partner 0.375 µg/mL	0.18
S. aureus DSM 20231 [1], first compound 0.5 µg/mL, partner 0.75 µg/mL	0.215
S. pneumoniae D39V [2], first compound 0.105 µg/mL, partner 0.125 µg/mL	0.689
S. pneumoniae D39V [2], first compound 0.105 µg/mL, partner 0.25 µg/mL	0.0692
S. pneumoniae D39V [2], first compound 0.105 µg/mL, partner 0.5 µg/mL	0.0491
S. pneumoniae D39V [2], first compound 0.2 µg/mL, partner 0.03125 µg/mL	0.77
S. pneumoniae D39V [2], first compound 0.2 µg/mL, partner 0.0625 µg/mL	0.751
S. pneumoniae D39V [2], first compound 0.21 µg/mL, partner 0.125 µg/mL	0.573
S. pneumoniae D39V [2], first compound 0.21 µg/mL, partner 0.25 µg/mL	0.082
S. pneumoniae D39V [2], first compound 0.21 µg/mL, partner 0.5 µg/mL	0.0299
S. pneumoniae D39V [2], first compound 0.4 µg/mL, partner 0.03125 µg/mL	0.63
S. pneumoniae D39V [2], first compound 0.4 µg/mL, partner 0.0625 µg/mL	0.604
S. pneumoniae D39V [2], first compound 0.42 µg/mL, partner 0.125 µg/mL	0.339
S. pneumoniae D39V [2], first compound 0.42 µg/mL, partner 0.25 µg/mL	0.0579
S. pneumoniae D39V [2], first compound 0.42 µg/mL, partner 0.5 µg/mL	0.0734
S. pneumoniae D39V [2], first compound 0.8 µg/mL, partner 0.03125 µg/mL	0.302
S. pneumoniae D39V [2], first compound 0.8 µg/mL, partner 0.0625 µg/mL	0.255
S. pneumoniae D39V [2], first compound 0.8 µg/mL, partner 0.125 µg/mL	0.188

S. aureus DSM 20231 [1], first compound 1 µg/mL, one replicate
Conditions	fitness
partner 0.1875 µg/mL	0.0273
partner 0.375 µg/mL	0.0396
partner 0.75 µg/mL	0.0452

Conditions	Bliss interaction score
B. subtilis 168 [3]	0.0387
S. aureus DSM 20231 [4]	0.0467
S. aureus Newman	-0.044
S. pneumoniae D39V [5]	-0.13

CC(=O)NC[C@H]1CN(c2ccc(N3CCOCC3)c(F)c2)C(=O)O1 [Linezolid] + COc1c(N2C[C@@H]3CCCN[C@@H]3C2)c(F)cc2c(=O)c(C(=O)O)cn(C3CC3)c12 [Moxifloxacin]
one replicate
Conditions	fitness
B. subtilis 168 [6], first compound 0.0625 µg/mL, partner 0.0312 µg/mL	0.0541
B. subtilis 168 [6], first compound 0.0625 µg/mL, partner 0.0625 µg/mL	0.0464
B. subtilis 168 [6], first compound 0.0625 µg/mL, partner 0.125 µg/mL	0.0299
S. aureus DSM 20231 [1], first compound 0.125 µg/mL, partner 0.06 µg/mL	0.712
S. aureus DSM 20231 [1], first compound 0.125 µg/mL, partner 0.12 µg/mL	0.535
S. aureus DSM 20231 [1], first compound 0.25 µg/mL, partner 0.06 µg/mL	0.655
S. aureus DSM 20231 [1], first compound 0.25 µg/mL, partner 0.12 µg/mL	0.536
S. aureus DSM 20231 [1], first compound 0.5 µg/mL, partner 0.06 µg/mL	0.44
S. aureus DSM 20231 [1], first compound 0.5 µg/mL, partner 0.12 µg/mL	0.368
S. aureus DSM 20231 [1], first compound 1 µg/mL, partner 0.0075 µg/mL	0.0168
S. aureus DSM 20231 [1], first compound 1 µg/mL, partner 0.015 µg/mL	0.0282
S. aureus DSM 20231 [1], first compound 1 µg/mL, partner 0.03 µg/mL	0.0258

Conditions	fitness
B. subtilis 168 [6], first compound 0.125 µg/mL, partner 0.0312 µg/mL	0.0559
B. subtilis 168 [6], first compound 0.125 µg/mL, partner 0.0625 µg/mL	0.0387
B. subtilis 168 [6], first compound 0.125 µg/mL, partner 0.125 µg/mL	0.0364
B. subtilis 168 [6], first compound 0.125 µg/mL, partner 2 µg/mL	0.036
B. subtilis 168 [6], first compound 0.125 µg/mL, partner 4 µg/mL	0.0272
B. subtilis 168 [6], first compound 0.125 µg/mL, partner 8 µg/mL	0.0181
B. subtilis 168 [6], first compound 0.25 µg/mL, partner 0.0312 µg/mL	0.242
B. subtilis 168 [6], first compound 0.25 µg/mL, partner 0.0625 µg/mL	0.0554
B. subtilis 168 [6], first compound 0.25 µg/mL, partner 0.125 µg/mL	0.0577
B. subtilis 168 [6], first compound 0.25 µg/mL, partner 2 µg/mL	0.0241
B. subtilis 168 [6], first compound 0.25 µg/mL, partner 4 µg/mL	0.0237
B. subtilis 168 [6], first compound 0.25 µg/mL, partner 8 µg/mL	0.0144
B. subtilis 168 [6], first compound 0.5 µg/mL, partner 0.0312 µg/mL	0.044
B. subtilis 168 [6], first compound 0.5 µg/mL, partner 0.0625 µg/mL	0.0596
B. subtilis 168 [6], first compound 0.5 µg/mL, partner 0.125 µg/mL	0.0457
B. subtilis 168 [6], first compound 0.5 µg/mL, partner 2 µg/mL	0.0308
B. subtilis 168 [6], first compound 0.5 µg/mL, partner 4 µg/mL	0.021
B. subtilis 168 [6], first compound 0.5 µg/mL, partner 8 µg/mL	0.0223
S. aureus DSM 20231 [1], first compound 0.125 µg/mL, partner 0.0075 µg/mL	0.795
S. aureus DSM 20231 [1], first compound 0.125 µg/mL, partner 0.015 µg/mL	0.743
S. aureus DSM 20231 [1], first compound 0.125 µg/mL, partner 0.03 µg/mL	0.671
S. aureus DSM 20231 [1], first compound 0.25 µg/mL, partner 0.0075 µg/mL	0.541
S. aureus DSM 20231 [1], first compound 0.25 µg/mL, partner 0.015 µg/mL	0.5
S. aureus DSM 20231 [1], first compound 0.25 µg/mL, partner 0.03 µg/mL	0.582
S. aureus DSM 20231 [1], first compound 0.5 µg/mL, partner 0.0075 µg/mL	0.12
S. aureus DSM 20231 [1], first compound 0.5 µg/mL, partner 0.015 µg/mL	0.178
S. aureus DSM 20231 [1], first compound 0.5 µg/mL, partner 0.03 µg/mL	0.272
S. pneumoniae D39V [2], first compound 0.105 µg/mL, partner 0.0037 µg/mL	0.739
S. pneumoniae D39V [2], first compound 0.105 µg/mL, partner 0.0075 µg/mL	0.741
S. pneumoniae D39V [2], first compound 0.105 µg/mL, partner 0.015 µg/mL	0.73
S. pneumoniae D39V [2], first compound 0.2 µg/mL, partner 0.005 µg/mL	0.839
S. pneumoniae D39V [2], first compound 0.2 µg/mL, partner 0.01 µg/mL	0.858
S. pneumoniae D39V [2], first compound 0.2 µg/mL, partner 0.02 µg/mL	0.826
S. pneumoniae D39V [2], first compound 0.21 µg/mL, partner 0.0037 µg/mL	0.647
S. pneumoniae D39V [2], first compound 0.21 µg/mL, partner 0.0075 µg/mL	0.651
S. pneumoniae D39V [2], first compound 0.21 µg/mL, partner 0.015 µg/mL	0.624
S. pneumoniae D39V [2], first compound 0.4 µg/mL, partner 0.005 µg/mL	0.704
S. pneumoniae D39V [2], first compound 0.4 µg/mL, partner 0.01 µg/mL	0.715
S. pneumoniae D39V [2], first compound 0.4 µg/mL, partner 0.02 µg/mL	0.68
S. pneumoniae D39V [2], first compound 0.42 µg/mL, partner 0.0037 µg/mL	0.366
S. pneumoniae D39V [2], first compound 0.42 µg/mL, partner 0.0075 µg/mL	0.424
S. pneumoniae D39V [2], first compound 0.42 µg/mL, partner 0.015 µg/mL	0.449
S. pneumoniae D39V [2], first compound 0.8 µg/mL, partner 0.005 µg/mL	0.45
S. pneumoniae D39V [2], first compound 0.8 µg/mL, partner 0.02 µg/mL	0.461

Conditions	Bliss interaction score
B. subtilis 168 [3]	0.0351
S. aureus DSM 20231 [4]	0.0931
S. aureus Newman	0.074
S. pneumoniae D39V [5]	0.0972
